Test results as given in ChEMBL document CHEMBL1128977, “Antioxidant properties of nitrocaffeic acids” (Bioorg Med Chem Lett, 1996).

Test system: not listed separately
Test: Superoxide anion (O2-) scavenging activity

SMILES	IC50
O=[N+]([O-])c1ccc(O)c(O)c1 [4-Nitrocatechol]	250 µM
O=[N+]([O-])c1cc(O)ccc1O	1000 µM
O=C(O)/C=C/c1cc(O)c(O)c([N+](=O)[O-])c1	185 µM
O=C(O)/C=C/c1ccc(O)c(O)c1 [CAFFEIC ACID]	95 µM
O=[N+]([O-])c1cccc(O)c1O	250 µM
O=C(O)/C=C/c1cc(O)c(O)cc1[N+](=O)[O-]	150 µM
CC(=O)C(Cc1cc(O)c(O)c([N+](=O)[O-])c1)C(C)=O	500 µM
Oc1ccccc1O [CATECHOL]	30 µM
O=C(O)/C=C/c1ccc(O)c(O)c1[N+](=O)[O-]	35 µM

Test system: not listed separately
Test: Compound was evaluated for hydroxyl radical (OH) scavenging activity

SMILES	IC50
O=[N+]([O-])c1ccc(O)c(O)c1 [4-Nitrocatechol]	130 µM
O=[N+]([O-])c1cc(O)ccc1O	85 µM
O=C(O)/C=C/c1cc(O)c(O)c([N+](=O)[O-])c1	400 µM
O=[N+]([O-])c1cccc(O)c1O	180 µM
O=C(O)/C=C/c1cc(O)c(O)cc1[N+](=O)[O-]	250 µM
CC(=O)C(Cc1cc(O)c(O)c([N+](=O)[O-])c1)C(C)=O	300 µM
O=C(O)/C=C/c1ccc(O)c(O)c1[N+](=O)[O-]	425 µM

Molecular target: Xanthine dehydrogenase/oxidase (Homo sapiens, UniProt P47989)
Test: Compound was evaluated for inhibition of xanthine oxidase
Design: concentration or dose not given beside the values

Chain of Xanthine dehydrogenase/oxidase (P47989 whole entry): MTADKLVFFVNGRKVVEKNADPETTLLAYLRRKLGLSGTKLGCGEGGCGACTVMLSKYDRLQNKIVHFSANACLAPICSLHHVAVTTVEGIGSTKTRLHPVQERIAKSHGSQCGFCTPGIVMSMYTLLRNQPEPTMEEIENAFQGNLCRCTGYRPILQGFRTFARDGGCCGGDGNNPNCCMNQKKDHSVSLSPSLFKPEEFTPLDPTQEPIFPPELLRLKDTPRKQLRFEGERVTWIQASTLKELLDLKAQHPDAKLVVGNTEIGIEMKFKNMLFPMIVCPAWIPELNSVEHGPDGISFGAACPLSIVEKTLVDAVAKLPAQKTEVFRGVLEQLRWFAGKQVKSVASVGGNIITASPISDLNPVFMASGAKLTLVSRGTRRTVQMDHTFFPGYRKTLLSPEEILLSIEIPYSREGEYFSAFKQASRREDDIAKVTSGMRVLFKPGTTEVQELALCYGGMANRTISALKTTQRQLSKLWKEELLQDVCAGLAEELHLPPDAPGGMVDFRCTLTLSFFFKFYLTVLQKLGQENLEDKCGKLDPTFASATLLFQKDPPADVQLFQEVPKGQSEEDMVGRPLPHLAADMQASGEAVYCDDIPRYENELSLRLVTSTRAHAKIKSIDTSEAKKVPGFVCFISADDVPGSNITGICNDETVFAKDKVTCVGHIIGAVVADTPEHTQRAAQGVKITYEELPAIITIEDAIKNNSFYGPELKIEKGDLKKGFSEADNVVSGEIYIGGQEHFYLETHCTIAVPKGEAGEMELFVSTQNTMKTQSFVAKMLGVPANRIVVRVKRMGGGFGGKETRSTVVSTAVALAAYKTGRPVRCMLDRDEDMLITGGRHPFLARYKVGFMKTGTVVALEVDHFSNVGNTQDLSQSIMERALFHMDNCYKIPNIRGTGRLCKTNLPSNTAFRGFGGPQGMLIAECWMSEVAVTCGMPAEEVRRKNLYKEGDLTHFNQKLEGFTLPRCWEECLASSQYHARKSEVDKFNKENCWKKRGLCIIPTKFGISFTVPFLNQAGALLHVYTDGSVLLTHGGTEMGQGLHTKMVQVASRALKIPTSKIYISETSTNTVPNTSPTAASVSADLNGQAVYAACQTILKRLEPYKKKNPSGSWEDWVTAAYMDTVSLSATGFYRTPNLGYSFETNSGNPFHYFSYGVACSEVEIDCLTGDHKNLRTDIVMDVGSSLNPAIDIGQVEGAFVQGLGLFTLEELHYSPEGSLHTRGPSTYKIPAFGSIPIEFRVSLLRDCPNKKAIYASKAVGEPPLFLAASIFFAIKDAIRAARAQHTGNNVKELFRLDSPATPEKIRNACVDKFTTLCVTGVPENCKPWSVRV

SMILES	Inhibition
O=[N+]([O-])c1ccc(O)c(O)c1 [4-Nitrocatechol]	9%
O=[N+]([O-])c1cc(O)ccc1O	12%
O=C(O)/C=C/c1cc(O)c(O)c([N+](=O)[O-])c1	70%
O=C(O)/C=C/c1ccc(O)c(O)c1 [CAFFEIC ACID]	18%
O=[N+]([O-])c1cccc(O)c1O	5%
O=C(O)/C=C/c1cc(O)c(O)cc1[N+](=O)[O-]	36%
Oc1ccccc1O [CATECHOL]	5%
O=C(O)/C=C/c1ccc(O)c(O)c1[N+](=O)[O-]	61%
